# Results published in article PMC6934184, “Selective DNA-PKcs inhibition extends the therapeutic index of localized radiotherapy and chemotherapy” (The Journal of Clinical Investigation, 2019).
# Biological target: T1, STK23 (MSSK1) (Homo sapiens, UniProt Q9UPE1)
# T1 construct: purchased Thermo Fisher Scientific (Life Technologies) SelectScreen
# Assay: SelectScreen Z'LYTE
# Assay type: biochemical
# Method in brief: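 Percent values come from Thermo SelectScreen profiling of NU5455, combining activity and binding assays. CSF1R was run in Z'LYTE format at Km app ATP, and CAMK1 in Adapta format with ATP listed at 10.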
# T1 sequence (Q9UPE1 whole entry): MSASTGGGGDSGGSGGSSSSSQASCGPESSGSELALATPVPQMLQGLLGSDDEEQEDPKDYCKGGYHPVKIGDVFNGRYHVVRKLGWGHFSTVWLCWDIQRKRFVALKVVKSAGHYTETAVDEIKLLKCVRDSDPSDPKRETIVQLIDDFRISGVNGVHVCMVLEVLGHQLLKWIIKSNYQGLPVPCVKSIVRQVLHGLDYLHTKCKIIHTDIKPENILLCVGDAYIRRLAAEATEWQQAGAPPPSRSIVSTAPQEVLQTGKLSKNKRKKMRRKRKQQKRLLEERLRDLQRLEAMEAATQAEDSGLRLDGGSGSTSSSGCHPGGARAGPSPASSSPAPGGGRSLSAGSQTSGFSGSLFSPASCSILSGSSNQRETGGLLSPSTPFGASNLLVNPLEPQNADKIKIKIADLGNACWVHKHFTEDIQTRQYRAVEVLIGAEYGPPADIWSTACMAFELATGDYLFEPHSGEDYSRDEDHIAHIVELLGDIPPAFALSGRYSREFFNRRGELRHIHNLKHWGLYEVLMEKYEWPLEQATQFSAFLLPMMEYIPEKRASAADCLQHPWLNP
structure (smiles),measurement,value
CN(C(=O)CN1CCOCC1)c1ccc2sc3c(-c4cccc5c(=O)cc(N6CC7CCC(C6)O7)oc45)cccc3c2c1 [NU5455],inhibition at 1 µM,2%
